# From ChEMBL document CHEMBL2331514, “Structure-based design and synthesis of novel pseudosaccharine derivatives as antiproliferative agents and kinase inhibitors” (Eur J Med Chem, 2013)
# Legend:
# Assay type in all cases: functional
# T47D = assay: Cytotoxicity against human T47D cells assessed as growth inhibition at 10 uM after 48 hrs by SRB assay; conditions: read-out: GI
# Hs-578T = assay: Cytotoxicity against human Hs578T cells assessed as growth inhibition at 10 uM after 48 hrs by SRB assay; conditions: read-out: GI
# BT-549 = assay: Cytotoxicity against human BT549 cells assessed as growth inhibition at 10 uM after 48 hrs by SRB assay; conditions: BT-549, 48 h, read-out: GI
# MDA-MB-231 = assay: Cytotoxicity against human MDA-MB-231 cells assessed as growth inhibition at 10 uM after 48 hrs by SRB assay; conditions: MDA-MB-231, 48 h, read-out: GI
# MCF7 = assay: Cytotoxicity against human MCF7 cells assessed as growth inhibition at 10 uM after 48 hrs by SRB assay; conditions: MCF7, 48 h, read-out: GI
# PC-3 = assay: Cytotoxicity against human PC3 cells assessed as growth inhibition at 10 uM after 48 hrs by SRB assay; conditions: PC-3, 48 h, read-out: GI
# UO-31 = assay: Cytotoxicity against human UO31 cells assessed as growth inhibition at 10 uM after 48 hrs by SRB assay; conditions: UO-31, 48 h, read-out: GI
# TK-10 = assay: Cytotoxicity against human TK10 cells assessed as growth inhibition at 10 uM after 48 hrs by SRB assay; conditions: TK-10, 48 h, read-out: GI
# RXF 393 = assay: Cytotoxicity against human RXF393 cells assessed as growth inhibition at 10 uM after 48 hrs by SRB assay; conditions: RXF 393, 48 h, read-out: GI
# CAKI-1 = assay: Cytotoxicity against human Caki1 cells assessed as growth inhibition at 10 uM after 48 hrs by SRB assay; conditions: CAKI-1, 48 h, read-out: GI
# ACHN = assay: Cytotoxicity against human ACHN cells assessed as growth inhibition at 10 uM after 48 hrs by SRB assay; conditions: read-out: GI
# A498 = assay: Cytotoxicity against human A498 cells assessed as growth inhibition at 10 uM after 48 hrs by SRB assay; conditions: A498, 48 h, read-out: GI
# 786-0 = assay: Cytotoxicity against human 786-0 cells assessed as growth inhibition at 10 uM after 48 hrs by SRB assay; conditions: 786-0, 48 h, read-out: GI
# SK-OV-3 = assay: Cytotoxicity against human SKOV3 cells assessed as growth inhibition at 10 uM after 48 hrs by SRB assay; conditions: SK-OV-3, 48 h, read-out: GI
# [1] = Cytotoxicity against human NCI-ADR-RES cells assessed as growth inhibition at 10 uM after 48 hrs by SRB assay; conditions: read-out: GI
# OVCAR-8 = assay: Cytotoxicity against human OVCAR8 cells assessed as growth inhibition at 10 uM after 48 hrs by SRB assay; conditions: OVCAR-8, 48 h, read-out: GI
# OVCAR-5 = assay: Cytotoxicity against human OVCAR5 cells assessed as growth inhibition at 10 uM after 48 hrs by SRB assay; conditions: OVCAR-5, 48 h, read-out: GI
# OVCAR-3 = assay: Cytotoxicity against human OVCAR3 cells assessed as growth inhibition at 10 uM after 48 hrs by SRB assay; conditions: OVCAR-3, 48 h, read-out: GI
# UACC-62 = assay: Cytotoxicity against human UACC62 cells assessed as growth inhibition at 10 uM after 48 hrs by SRB assay; conditions: UACC-62, 48 h, read-out: GI
# UACC-257 = assay: Cytotoxicity against human UACC257 cells assessed as growth inhibition at 10 uM after 48 hrs by SRB assay; conditions: UACC-257, 48 h, read-out: GI
# SK-MEL-5 = assay: Cytotoxicity against human SK-MEL-5 cells assessed as growth inhibition at 10 uM after 48 hrs by SRB assay; conditions: SK-MEL-5, 48 h, read-out: GI
# MDA-MB-435 = assay: Cytotoxicity against human MDA-MB-435 cells assessed as growth inhibition at 10 uM after 48 hrs by SRB assay; conditions: MDA-MB-435, 48 h, read-out: GI
# Malme-3M = assay: Cytotoxicity against human MALME-3M cells assessed as growth inhibition at 10 uM after 48 hrs by SRB assay; conditions: read-out: GI
# LOX IMVI = assay: Cytotoxicity against human LOXIMVI cells assessed as growth inhibition at 10 uM after 48 hrs by SRB assay; conditions: read-out: GI
# U-251 = assay: Cytotoxicity against human U251 cells assessed as growth inhibition at 10 uM after 48 hrs by SRB assay; conditions: U-251, 48 h, read-out: GI
# SNB-19 = assay: Cytotoxicity against human SNB19 cells assessed as growth inhibition at 10 uM after 48 hrs by SRB assay; conditions: SNB-19, 48 h, read-out: GI
# SF-539 = assay: Cytotoxicity against human SF539 cells assessed as growth inhibition at 10 uM after 48 hrs by SRB assay; conditions: SF-539, 48 h, read-out: GI
# SF-268 = assay: Cytotoxicity against human SF268 cells assessed as growth inhibition at 10 uM after 48 hrs by SRB assay; conditions: SF-268, 48 h, read-out: GI
# SW-620 = assay: Cytotoxicity against human SW620 cells assessed as growth inhibition at 10 uM after 48 hrs by SRB assay; conditions: SW-620, 48 h, read-out: GI
# KM12 = assay: Cytotoxicity against human KM12 cells assessed as growth inhibition at 10 uM after 48 hrs by SRB assay; conditions: KM12, 48 h, read-out: GI
# HCT-15 = assay: Cytotoxicity against human HCT15 cells assessed as growth inhibition at 10 uM after 48 hrs by SRB assay; conditions: HCT-15, 48 h, read-out: GI
# COLO 205 = assay: Cytotoxicity against human COLO205 cells assessed as growth inhibition at 10 uM after 48 hrs by SRB assay; conditions: COLO 205, 48 h, read-out: GI
# NCI-H522 = assay: Cytotoxicity against human NCI-H522 cells assessed as growth inhibition at 10 uM after 48 hrs by SRB assay; conditions: NCI-H522, 48 h, read-out: GI
# NCI-H460 = assay: Cytotoxicity against human NCI-H460 cells assessed as growth inhibition at 10 uM after 48 hrs by SRB assay; conditions: NCI-H460, 48 h, read-out: GI
# NCI-H322M = assay: Cytotoxicity against human NCI-H322M cells assessed as growth inhibition at 10 uM after 48 hrs by SRB assay; conditions: read-out: GI
# NCI-H23 = assay: Cytotoxicity against human NCI-H23 cells assessed as growth inhibition at 10 uM after 48 hrs by SRB assay; conditions: NCI-H23, 48 h, read-out: GI
# HOP-92 = assay: Cytotoxicity against human HOP92 cells assessed as growth inhibition at 10 uM after 48 hrs by SRB assay; conditions: HOP-92, 48 h, read-out: GI
# RPMI-8226 = assay: Cytotoxicity against human RPMI8226 cells assessed as growth inhibition at 10 uM after 48 hrs by SRB assay; conditions: RPMI-8226, 48 h, read-out: GI
SMILES,inhibition of growth at 10 µM (T47D) [%],inhibition of growth at 10 µM (Hs-578T) [%],inhibition of growth at 10 µM (BT-549) [%],inhibition of growth at 10 µM (MDA-MB-231) [%],inhibition of growth at 10 µM (MCF7) [%],inhibition of growth at 10 µM (PC-3) [%],inhibition of growth at 10 µM (UO-31) [%],inhibition of growth at 10 µM (TK-10) [%],inhibition of growth at 10 µM (RXF 393) [%],inhibition of growth at 10 µM (CAKI-1) [%],inhibition of growth at 10 µM (ACHN) [%],inhibition of growth at 10 µM (A498) [%],inhibition of growth at 10 µM (786-0) [%],inhibition of growth at 10 µM (SK-OV-3) [%],inhibition of growth at 10 µM [1] [%],inhibition of growth at 10 µM (OVCAR-8) [%],inhibition of growth at 10 µM (OVCAR-5) [%],inhibition of growth at 10 µM (OVCAR-3) [%],inhibition of growth at 10 µM (UACC-62) [%],inhibition of growth at 10 µM (UACC-257) [%],further results
O=C(Nc1ccc(NC2=NS(=O)(=O)c3ccccc32)cc1)Nc1cccc(Br)c1,60,35,23,47,44,16,13,-2,35,5,3,21,27,4,8,17,13,22,19,9,inhibition of growth at 10 µM (SK-MEL-5): 45%; inhibition of growth at 10 µM (MDA-MB-435): 11%; inhibition of growth at 10 µM (Malme-3M): 17%; inhibition of growth at 10 µM (LOX IMVI): 23%; inhibition of growth at 10 µM (U-251): 39%; inhibition of growth at 10 µM (SNB-19): 19%; inhibition of growth at 10 µM (SF-539): 36%; inhibition of growth at 10 µM (SF-268): 23%; inhibition of growth at 10 µM (SW-620): -2%; inhibition of growth at 10 µM (KM12): 88%; inhibition of growth at 10 µM (HCT-15): -6%; inhibition of growth at 10 µM (COLO 205): -11%; inhibition of growth at 10 µM (NCI-H522): 14%; inhibition of growth at 10 µM (NCI-H460): 1%; inhibition of growth at 10 µM (NCI-H322M): 29%; inhibition of growth at 10 µM (NCI-H23): 14%; inhibition of growth at 10 µM (HOP-92): 36%; inhibition of growth at 10 µM (RPMI-8226): 8%
O=C(Nc1ccccc1)Nc1ccc(NC2=NS(=O)(=O)c3ccccc32)cc1,10,-9,3,11,10,-3,7,-12,-6,2,-8,16,3,-7,-2,-5,-2,-11,-7,-1,inhibition of growth at 10 µM (SK-MEL-5): 6%; inhibition of growth at 10 µM (MDA-MB-435): 0%; inhibition of growth at 10 µM (Malme-3M): -1%; inhibition of growth at 10 µM (LOX IMVI): 2%; inhibition of growth at 10 µM (U-251): 1%; inhibition of growth at 10 µM (SNB-19): -5%; inhibition of growth at 10 µM (SF-539): 5%; inhibition of growth at 10 µM (SF-268): -1%; inhibition of growth at 10 µM (SW-620): -4%; inhibition of growth at 10 µM (KM12): -6%; inhibition of growth at 10 µM (HCT-15): -7%; inhibition of growth at 10 µM (COLO 205): -19%; inhibition of growth at 10 µM (NCI-H522): -6%; inhibition of growth at 10 µM (NCI-H460): -3%; inhibition of growth at 10 µM (NCI-H322M): -8%; inhibition of growth at 10 µM (NCI-H23): 3%; inhibition of growth at 10 µM (HOP-92): 1%; inhibition of growth at 10 µM (RPMI-8226): -2%
